Source: patent publication US20240279205A1, “NOVEL BENZIMIDAZOLE DERIVATIVE” (Carna Biosciences, Inc., priority 2020, published 2024)
Counter-ions that a name gives are not always drawn.

What was measured:
[1] = tested on: STING activation (IFN-β production in THP-1 cells); experiment: Human IFN-β production inhibition test by cGAMP stimulation in THP-1 cells; assay type: cell-based; set-up: IFN-β bioinhibitory activity: scale not given here; conditions: 2'3'-cGAMP transfection, 18 hours, IFN-β ELISA; for IC50: Homo sapiens, read-out: IFN-β bioinhibitory activity
Description: Human IFN-β production inhibition test by cGAMP stimulation
The inhibitory activity of test compounds against STING activation was evaluated by measuring the amount of IFN-β produced when human monocytic cell line THP-1 cells were stimulated with the endogenous ligand cGAMP.
After seeding THP-1 cells (ATCC) in a 96-well plate, PMA (Santa Cruz Biotechnology) adjusted to a concentration of 100 nM after addition was added, and incubated at 37° C. in a 5% CO2 incubator. It was cultured overnight (RPMI1640 medium containing 10% FBS, 50 U/mL penicillin/50 μg/mL streptomycin). A test compound solution adjusted to a final concentration of 0.001 to 1 μM was added to each well of this plate and cultured for 1 hour in a CO2 incubator (DMSO final concentration 0.1%). 0.12 μg/well of 2′3′-cGAMP (Invivogen, #tlrl-nacga23) was introduced into the cells by transfection using Lipofectamine2000 (Invitrogen) and cultured in a CO incubator for an additional 18 hours. After collecting the culture supernatant from each well, the amount of human IFN-β produced in the culture supernatant was measured by ELISA using R&D human IFN-β Duoset (R&D Systems).
Assuming that the human IFN-β production amount of the test compound-free and cGAMP-added group is 100%, and the human IFN-β production amount of the test compound-free and cGAMP-free group is 0%, the IC50 value was determined by regression analysis of the inhibitory rate determined from the amount of human IFN-β production at each compound concentration and the concentration of the test compound (logarithm).

human STING (hSTING) = target: T1, human STING (hSTING) (Homo sapiens, UniProt Q86WV6); experiment: Inhibition test of intracellular human STING (hSTING) pathway using SEAP reporter cells (HEK-Blue ISG), stimulation with Compound 3; assay type: cell-based; set-up: hSTING inhibitory activity: scale not given here; conditions: Compound 3 10 nM stimulation, 21 hours; for IC50: read-out: hSTING inhibitory activity
T1 construct: host or cells: HEK-Blue ISG cells (HEK293-derived SEAP reporter line)
T1 sequence (Q86WV6 whole entry H232R): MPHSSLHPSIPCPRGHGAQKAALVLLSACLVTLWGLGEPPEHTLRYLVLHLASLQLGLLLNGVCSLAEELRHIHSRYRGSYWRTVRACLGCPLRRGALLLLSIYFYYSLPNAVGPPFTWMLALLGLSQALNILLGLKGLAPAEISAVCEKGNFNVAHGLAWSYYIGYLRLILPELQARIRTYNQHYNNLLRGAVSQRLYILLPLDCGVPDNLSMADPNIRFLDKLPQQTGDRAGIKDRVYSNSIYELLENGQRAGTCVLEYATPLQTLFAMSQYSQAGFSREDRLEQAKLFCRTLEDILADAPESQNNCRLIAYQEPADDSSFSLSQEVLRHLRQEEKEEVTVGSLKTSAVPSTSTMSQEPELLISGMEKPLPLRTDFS
Method in brief: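 HEK-Blue ISG cells with IRF-inducible SEAP reporter, pretreated 1 h with compound (final 0.1 to 10 μM), then stimulated with Compound 3 (final 10 nM) for 21 h at 37° C. Supernatant SEAP measured colorimetrically; IC50 from log-concentration regression, normalized to stimulated (100%) and unstimulated (0%) controls.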

SMILES	IFN-β bioinhibitory activity [1]	hSTING inhibitory activity (human STING (hSTING))	IC50 [1] [µM]	IC50 (human STING (hSTING)) [µM]
Clc1ccc2[nH]cc(Nc3nc4cc(I)ccc4[nH]3)c2n1 [Embodiment 124, N-(5-Chloro-1H-pyrrolo[3,2-b]pyridin-3-yl)-5-iodo-1H-benzo[d] imidazol-2-amine]	* * *	* *	–	–
Clc1ccc2[nH]cc(Nc3nc4cc(C#CC5CC5)ccc4[nH]3)c2n1 [Embodiment 125, N-(5-Chloro-1H-pyrrolo[3,2-b]pyridin-3-yl)-5-(cyclopropylethynyl)-1H-benzo[d]imidazol-2-amine]	–	* *	0.1 to 1	–
Clc1ccc2[nH]cc(Nc3nc4c(N5CCCCC5)cccc4[nH]3)c2n1 [Embodiment 127, N-(5-Chloro-1H-pyrrolo[3,2-b]pyridin-3-yl)-4-(piperidin-1-yl)-1H-benzo[d]imidazol-2-amine]	* *	* *	–	–
CC(C)=Cc1ccc2[nH]c(Nc3c[nH]c4ccc(Cl)nc34)nc2c1 [Embodiment 128, N-(5-chloro-1H-pyrrolo[3,2-b]pyridin-3-yl)-5-(2-methylprop-1-en-1-yl)-1H-benzo[d]imidazole-2-amine]	* * *	* *	–	–
Clc1ccc2[nH]cc(Nc3nc4cc(C5CC5)ccc4[nH]3)c2n1 [Embodiment 129, N-(5-Chloro-1H-pyrrolo[3,2-b]pyridin-3-yl)-5-cyclopropyl-1H-benzo[d]imidazol-2-amine]	* *	* *	–	–
N#Cc1ccc2[nH]cc(Nc3nc4cc(Oc5ccccc5)ccc4[nH]3)c2n1 [Embodiment 130, 3-[(5-phenoxy-1H-benzo[d]imidazol-2-yl)amino]-1H-pyrrolo[3,2-b] pyridine-5-carbonitrile]	–	* *	≥ 1	–
CC(C)Cc1ccc2[nH]c(Nc3c[nH]c4ccc(Cl)nc34)nc2c1 [Embodiment 131, N-(5-Chloro-1H-pyrrolo[3,2-b]pyridin-3-yl)-5-isobutyl-1H-benzo [d]imidazol-2-amine formate]	* *	* *	–	–
C#Cc1ccc2[nH]c(Nc3c[nH]c4ccc(Cl)nc34)nc2c1 [Embodiment 133, N-(5-Chloro-1H-pyrrolo[3,2-b]pyridin-3-yl)-5-ethynyl-1H-benzo[d] imidazol-2-amine formate]	* * *	* *	–	–
CC#Cc1ccc2[nH]c(Nc3c[nH]c4ccc(Cl)nc34)nc2c1 [Embodiment 136, N-(5-Chloro-1H-pyrrolo[3,2-b]pyridin-3-yl)-5-(prop-1-yn-1-yl)-1H-benzo[d]imidazole-2-amine]	–	* *	0.1 to 1	–
C=C(C)c1ccnc2c(Nc3nc4cc(Oc5ccccc5)ccc4[nH]3)c[nH]c12 [Embodiment 144, 5-phenoxy-N-[7-(prop-1-en-2-yl)-1H-pyrrolo[3,2-b]pyridin-3-yl]-1H-benzo[d]imidazole-2-amine]	–	* *	≥ 1	–
COCC#Cc1ccc2[nH]c(Nc3c[nH]c4ccc(Cl)nc34)nc2c1 [Embodiment 145, N-(5-Chloro-1H-pyrrolo[3,2-b]pyridin-3-yl)-5(3-methoxyprop-1-yn-1-yl)-1H-benzo[d]imidazole-2-amine]	–	* *	0.1 to 1	–
Clc1ccc2[nH]cc(Nc3nc4c(C5=CCOCC5)cccc4[nH]3)c2n1 [Embodiment 149, N-(5-chloro-1H-pyrrolo[3,2-b]pyridin-3-yl)-4-(3,6-dihydro-2H-pyran-4-yl)-1H-benzo[d]imidazol-2-amine]	–	–	0.1 to 1	1 to 10
Clc1ccc2[nH]cc(Nc3nc4cc(N5CCCCC5)ccc4[nH]3)c2n1 [Embodiment 151, N-(5-Chloro-1H-pyrrolo[3,2-b]pyridin-3-yl)-5-(piperidin-1-yl)-1H-benzo[d]imidazol-2-amine]	–	* *	0.1 to 1	–
Cn1c(Nc2c[nH]c3ccc(Cl)nc23)nc2c(N3CCCCC3)cccc21 [Embodiment 157, N-(5-chloro-1H-pyrrolo[3,2-b]pyridin-3-yl)-1-methyl-4-(piperidin-1-yl)-1H-benzo[d]imidazole-2-amine formate]	–	* *	0.1 to 1	–
CC(C)Oc1ccc2[nH]c(Nc3c[nH]c4ccc(Cl)nc34)nc2c1 [Embodiment 158, N-(5-Chloro-1H-pyrrolo[3,2-b]pyridin-3-yl)-5-isopropoxy-1H-benzo [d]imidazol-2-amine]	–	* *	0.1 to 1	–
COc1ccc2c(c1)nc(Nc1c[nH]c3ccc(Cl)nc13)n2C [Embodiment 159, N-(5-Chloro-1H-pyrrolo[3,2-b]pyridin-3-yl)-5-methoxy-1-methyl-1H-benzo[d]imidazol-2-amine]	–	–	0.1 to 1	1 to 10
Fc1cc2nc(Nc3c[nH]c4ccc(Cl)nc34)[nH]c2cc1C(F)(F)F [Embodiment 160, N-(5-Chloro-1H-pyrrolo[3,2-b]pyridin-3-yl)-5-fluoro-6-(trifluoromethyl)-1H-benzo[d]imidazol-2-amine]	–	* * *	0.1 to 1	–
Cn1c(Nc2c[nH]c3ccc(Cl)nc23)nc2cc(Br)ccc21 [Embodiment 169, 5-bromo-N-(5-chloro-1H-pyrrolo [3,2-b]pyridin-3-yl)-1-methyl-1H-benzo[d]imidazol-2-amine]	* *	–	–	1 to 10
COCCn1c(Nc2c[nH]c3ccc(Cl)nc23)nc2cc(C(F)(F)F)ccc21 [Embodiment 178, N-(5-chloro-1H-pyrrolo[3,2-b]pyridin-3-yl)-1-(2-methoxyethyl)-5-(trifluoromethyl)-1H-benzo[d]imidazol-2-amine]	–	–	≥ 1	≥ 10
Cn1c(Nc2c[nH]c3ccc(Cl)cc23)nc2cc(F)ccc21 [Embodiment 185, N-(5-Chloro-1H-indol-3-yl)-5-fluoro-1-methyl-1H-benzo[d]imidazol-2-amine formate]	* * *	* *	–	–
FC(F)(F)c1ccc2c(c1)nc(Nc1c[nH]c3ccc(Cl)nc13)n2C1CC1 [Embodiment 186, N-(5-Chloro-1H-pyrrolo[3,2-b]pyridin-3-yl)-1-cyclopropyl-5-(trifluoromethyl)-1H-benzo[d] imidazol-2-amine]	–	–	0.1 to 1	1 to 10
Fc1ccc(Oc2ccc3nc(Nc4c[nH]c5ccc(Cl)nc45)n(C4CC4)c3c2)cc1 [Embodiment 187, N-(5-chloro-1H-pyrrolo[3,2-b]pyridin-3-yl)-1-cyclopropyl-6-(4-fluorophenoxy)-1H-benzo[d] imidazole-2-amine]	–	* *	0.1 to 1	–
C=Cc1ccc2[nH]cc(Nc3nc4ccc(Oc5ccc(F)cc5)cc4n3C3CC3)c2n1 [Embodiment 188, 1-Cyclopropyl-6-(4-fluorophenoxy)-N-(5-vinyl-1H-pyrrolo[3,2-b]pyridin-3-yl)-1H-benzo[d]imidazole-2-amine]	–	* *	0.1 to 1	–
Fc1ccc2c(c1)nc(Nc1c[nH]c3ccc(Cl)cc13)n2C1CC1 [Embodiment 189, N-(5-Chloro-1H-indol-3-yl)-1-cyclopropyl-5-fluoro-1H-benzo[d] imidazol-2-amine]	–	* *	0.1 to 1	–
CCc1ccc2[nH]cc(Nc3nc4ccc(Oc5ccc(F)cc5)cc4n3C3CC3)c2n1 [Embodiment 190, 1-Cyclopropyl-N-(5-ethyl-1H-pyrrolo[3,2-b]pyridin-3-yl)-6-(4-fluorophenoxy)-1H-benzo[d]imidazole-2-amine formate]	–	–	≥ 1	1 to 10
C=Cc1ccc2[nH]cc(Nc3nc4ccc(Oc5ccc(F)cc5)cc4n3C)c2n1 [Embodiment 191]	–	* *	0.1 to 1	–
CCc1ccc2[nH]cc(Nc3nc4ccc(Oc5ccc(F)cc5)cc4n3C)c2n1 [Embodiment 192, N-(5-ethyl-1H-pyrrolo[3,2-b]pyridin-3-yl)-6-(4-fluorophenoxy)-1-methyl-1H-benzo[d]imidazole-2-amine formate]	–	* *	0.1 to 1	–
Cn1c(Nc2c[nH]c3ccc(Cl)cc23)nc2ccc(Oc3ccc(F)cc3)cc21 [Embodiment 195, N-(5-Chloro-1H-indol-3-yl)-6-(4-fluorophenoxy)-1-methyl-1H-benzo[d]imidazol-2-amine]	* *	* * *	–	–
